We go through 9 compounds from patent publication US10004701B2, “Methods and compositions for treating infection” (UNIVERSITY OF ROCHESTER, priority 2012, dated 2018).

What all share (experiment): AK assay 384-well format, Prestwick library screening
Assay [1] relates to P. aeruginosa. Type of assay: cell-based, Pseudomonas aeruginosa. The note with it: for fold induction at 50 µM: Pseudomonas aeruginosa, 3 h.
The subject of assay [2] is S. aureus strain USA300-0114. Type of assay: cell-based, Staphylococcus aureus. The note with it: for fold induction at 50 µM: Staphylococcus aureus, USA300, 3 h.
Assay [3] has as its system E. coli. Type of assay: cell-based, Escherichia coli. The note with it: for fold induction at 50 µM: Escherichia coli, 3 h.
Assay [4] deals with K. pneumoniae. Type of assay: cell-based, Klebsiella pneumoniae. The note with it: for fold induction at 50 µM: Klebsiella pneumoniae, 3 h.
Assay [5] relates to E. faecium. The assay is classed as cell-based, Enterococcus faecium. The note with it: for fold induction at 50 µM: Enterococcus faecium, 3 h.
The subject of assay [6] is E. cloacae. Type of assay: cell-based, Enterobacter cloacae. The note with it: for fold induction at 50 µM: Enterobacter cloacae, 3 h.
Assay [7] deals with A. baumannii strain 98-37-09. Type of assay: cell-based, Acinetobacter baumannii. The note with it: for fold induction at 50 µM: Acinetobacter baumannii, 983709, 3 h.
The mark [8] stands for this setting: 50 μM final drug concentration, 384-well format, cutoff for positive-scoring molecules 3-fold increase, read-out: AK-based Prestwick Library Screening Results, P. aeruginosa (increase in extracellular AK activity).
Where [9] appears, read: 50 μM final drug concentration, 384-well format, cutoff for positive-scoring molecules 3-fold increase, read-out: AK-based Prestwick Library Screening Results, S. aureus (increase in extracellular AK activity).
Setting [10] is: 50 μM final drug concentration, 384-well format, cutoff for positive-scoring molecules 3-fold increase, read-out: AK-based Prestwick Library Screening Results, E. coli (increase in extracellular AK activity).
The mark [11] stands for this setting: 50 μM final drug concentration, 384-well format, cutoff for positive-scoring molecules 3-fold increase, read-out: AK-based Prestwick Library Screening Results, K. pneumoniae (increase in extracellular AK activity).
Where [12] appears, read: 50 μM final drug concentration, 384-well format, cutoff for positive-scoring molecules 3-fold increase, read-out: AK-based Prestwick Library Screening Results, E. faecium (increase in extracellular AK activity).
[13] abbreviates: 50 μM final drug concentration, 384-well format, cutoff for positive-scoring molecules 3-fold increase, read-out: AK-based Prestwick Library Screening Results, E. cloacae (increase in extracellular AK activity).
Setting [14] is: 50 μM final drug concentration, 384-well format, cutoff for positive-scoring molecules 3-fold increase, read-out: AK-based Prestwick Library Screening Results, A. baumannii (increase in extracellular AK activity).
Setting [15] is: 50 μM final drug concentration, planktonic, cutoff for positive 3-fold increase, read-out: AK-based Prestwick Library Screening Results, P. aeruginosa (fold increase in extracellular AK activity).
[16] abbreviates: 50 μM final drug concentration, planktonic, cutoff for positive 3-fold increase, read-out: AK-based Prestwick Library Screening Results, S. aureus (fold increase in extracellular AK activity).
The mark [17] stands for this setting: 50 μM final drug concentration, planktonic, cutoff for positive 3-fold increase, read-out: AK-based Prestwick Library Screening Results, E. coli (fold increase in extracellular AK activity).
Where [18] appears, read: 50 μM final drug concentration, planktonic, cutoff for positive 3-fold increase, read-out: AK-based Prestwick Library Screening Results, K. pneumoniae (fold increase in extracellular AK activity).
Where [19] appears, read: 50 μM final drug concentration, planktonic, cutoff for positive 3-fold increase, read-out: AK-based Prestwick Library Screening Results, E. faecium (fold increase in extracellular AK activity).
The mark [20] stands for this setting: 50 μM final drug concentration, planktonic, cutoff for positive 3-fold increase, read-out: AK-based Prestwick Library Screening Results, E. cloacae (fold increase in extracellular AK activity).
The mark [21] stands for this setting: 50 μM final drug concentration, planktonic, cutoff for positive 3-fold increase, read-out: AK-based Prestwick Library Screening Results, A. baumannii (fold increase in extracellular AK activity).
Where [22] appears, read: 50 μM final drug concentration, cutoff for positive-scoring molecules 3-fold increase.

Counter-ions that a name gives are not always drawn. Like-named read-outs stand apart in the source and are kept apart here.

Regarding `c1ccc([C@H]2CN3CCSC3=N2)cc1` [Levamisole hydrochloride], the fold induction at 50 µM in assay [1] (setting [8]) was 1; in assay [2] (setting [9]), 0.9; in assay [3] (setting [10]), 1; in assay [4] (setting [11]), 0.7; in assay [5] (setting [12]), 1; in assay [6] (setting [13]) it was 1. For the same compound, the fold induction at 50 µM in assay [7] (setting [14]) was determined as 1.1.
Regarding Cytisine (−), the “AK-based Prestwick Library Screening Results, P. aeruginosa (fold increase in extracellular AK activity)” value in assay [1] is listed as 1.2. For the same compound, the “AK-based Prestwick Library Screening Results, S. aureus (fold increase in extracellular AK activity)” value in assay [2] is listed as 1.0. The “AK-based Prestwick Library Screening Results, E. coli (fold increase in extracellular AK activity)” value in assay [3] is 1.3. Besides, the “AK-based Prestwick Library Screening Results, K. pneumoniae (fold increase in extracellular AK activity)” value in assay [4] is recorded as 1.2. In addition, the “AK-based Prestwick Library Screening Results, E. faecium (fold increase in extracellular AK activity)” value in assay [5] is 1.0. In assay [6], the “AK-based Prestwick Library Screening Results, E. cloacae (fold increase in extracellular AK activity)” value was 1.5. Further, in assay [7], the “AK-based Prestwick Library Screening Results, A. baumannii (fold increase in extracellular AK activity)” value is 1.4.
Turning to `CC1CCc2cc(F)cc3c(=O)c(C(=O)O)cn1c23` (stereo not drawn) [Flumequine], the fold induction at 50 µM in assay [1] (planktonic P. aeruginosa, 50 μM final drug concentration, 384-well, […], read-out: AK-based Prestwick Library Screening Results: P. aeruginosa (increase in extracellular AK activity)) is 1.4; in assay [2] (planktonic S. aureus, 50 μM final drug concentration, 384-well, […], read-out: AK-based Prestwick Library Screening Results: S. aureus (increase in extracellular AK activity)) it was 2.2; in assay [3] (planktonic E. coli, 50 μM final drug concentration, 384-well, […], read-out: AK-based Prestwick Library Screening Results: E. coli (increase in extracellular AK activity)), 13.6; in assay [4] (planktonic K. pneumoniae, 50 μM final drug concentration, 384-well, […], read-out: AK-based Prestwick Library Screening Results: K. pneumoniae (increase in extracellular AK activity)), 2.2; in assay [5] (planktonic E. faecium, 50 μM final drug concentration, 384-well, […], read-out: AK-based Prestwick Library Screening Results: E. faecium (increase in extracellular AK activity)), 1.5; in assay [6] (planktonic E. cloacae, 50 μM final drug concentration, 384-well, […], read-out: AK-based Prestwick Library Screening Results: E. cloacae (increase in extracellular AK activity)), 24.4. In assay [7] (planktonic A. baumannii, 50 μM final drug concentration, 384-well, […], read-out: AK-based Prestwick Library Screening Results: A. baumannii (increase in extracellular AK activity)), the fold induction at 50 µM was found to be 2.9.
For the compound `Nc1nc2ncc(CNc3ccc(C(=O)N[C@@H](CCC(=O)O)C(=O)O)cc3)nc2c(=O)[nH]1` [Folic acid], the fold induction at 50 µM in assay [1] (setting [15]) worked out at 1.1; in assay [2] (setting [16]) it was 1; in assay [3] (setting [17]) it was 1.3; in assay [4] (setting [18]), 1; in assay [5] (setting [19]), 1.1; in assay [6] (setting [20]) it was 1.3. In assay [7] (setting [21]), the fold induction at 50 µM stood at 1.3.
In the case of `C[C@@H]1O[C@@H](O[C@H]2[C@H](Oc3cc(O)c4c(c3)O[C@H](c3ccc(O)cc3)CC4=O)O[C@H](CO)[C@@H](O)[C@@H]2O)[C@H](O)[C@H](O)[C@H]1O` [Naringin hydrate], the fold induction at 50 µM turned out to be 1.3 in assay [1] (setting [15]); 1.2 in assay [2] (setting [16]); 1.3 in assay [3] (setting [17]); 0.9 in assay [4] (setting [18]); 1 in assay [5] (setting [19]); 1.2 in assay [6] (setting [20]). In addition, the fold induction at 50 µM in assay [7] (setting [21]) was found to be 1.2.
In the case of `CCN[C@H]1CN(CCCOC)S(=O)(=O)c2sc(S(N)(=O)=O)cc21` [Brinzolamide], the fold induction at 50 µM in assay [1] (planktonic P. aeruginosa, 50 μM final drug concentration, cutoff for positive-scoring molecules 3-fold increase, read-out: AK-based Prestwick Library Screening Results, P. aeruginosa (increase in extracellular AK activity)) is 1.1; in assay [2] (planktonic S. aureus, 50 μM final drug concentration, cutoff for positive-scoring molecules 3-fold increase, read-out: AK-based Prestwick Library Screening Results, S. aureus (increase in extracellular AK activity)), 1; in assay [3] (planktonic E. coli, 50 μM final drug concentration, cutoff for positive-scoring molecules 3-fold increase, read-out: AK-based Prestwick Library Screening Results, E. coli (increase in extracellular AK activity)) it was 1.1; in assay [4] (planktonic K. pneumoniae, 50 μM final drug concentration, cutoff for positive-scoring molecules 3-fold increase, read-out: AK-based Prestwick Library Screening Results, K. pneumoniae (increase in extracellular AK activity)), 0.9; in assay [5] (planktonic E. faecium, 50 μM final drug concentration, cutoff for positive-scoring molecules 3-fold increase, read-out: AK-based Prestwick Library Screening Results, E. faecium (increase in extracellular AK activity)), 1.4; in assay [6] (planktonic E. cloacae, 50 μM final drug concentration, cutoff for positive-scoring molecules 3-fold increase, read-out: AK-based Prestwick Library Screening Results, E. cloacae (increase in extracellular AK activity)), 1.5. In assay [7] (planktonic A. baumannii, 50 μM final drug concentration, cutoff for positive-scoring molecules 3-fold increase, read-out: AK-based Prestwick Library Screening Results, A. baumannii (increase in extracellular AK activity)), the fold induction at 50 µM amounted to 1.1.
For the compound `CN(C)CCOC(C)(c1ccccc1)c1ccccn1` (stereo not drawn) [Doxylamine succinate], the fold induction at 50 µM was 0.8 in assay [1] (setting [8]); 0.7 in assay [2] (setting [9]); 0.8 in assay [3] (setting [10]); 0.6 in assay [4] (setting [11]); 0.9 in assay [5] (setting [12]); 1 in assay [6] (setting [13]). Moreover, the fold induction at 50 µM in assay [7] (setting [14]) came out at 0.8.
Regarding `CCCCNc1c(C(=O)OCC)c(C)nc2c1cnn2CC` [Tracazolate hydrochloride], the fold induction at 50 µM in assay [1] (planktonic P. aeruginosa, 50 μM final drug concentration, positive cutoff 3-fold increase, read-out: AK-based Prestwick library screening result, P. aeruginosa (fold increase in extracellular AK activity)) was determined as 0.6; in assay [2] (planktonic S. aureus, 50 μM final drug concentration, positive cutoff 3-fold increase, read-out: AK-based Prestwick library screening result, S. aureus (fold increase in extracellular AK activity)), 0.5; in assay [3] (planktonic E. coli, 50 μM final drug concentration, positive cutoff 3-fold increase, read-out: AK-based Prestwick library screening result, E. coli (fold increase in extracellular AK activity)), 0.5; in assay [4] (planktonic K. pneumoniae, 50 μM final drug concentration, positive cutoff 3-fold increase, read-out: AK-based Prestwick library screening result, K. pneumoniae (fold increase in extracellular AK activity)), 0.6; in assay [5] (planktonic E. faecium, 50 μM final drug concentration, positive cutoff 3-fold increase, read-out: AK-based Prestwick library screening result, E. faecium (fold increase in extracellular AK activity)), 1.1; in assay [6] (planktonic E. cloacae, 50 μM final drug concentration, positive cutoff 3-fold increase, read-out: AK-based Prestwick library screening result, E. cloacae (fold increase in extracellular AK activity)) it was 0.7. For the same compound, the fold induction at 50 µM in assay [7] (planktonic A. baumannii, 50 μM final drug concentration, positive cutoff 3-fold increase, read-out: AK-based Prestwick library screening result, A. baumannii (fold increase in extracellular AK activity)) amounted to 0.8.
For `Cl.OC(CCN1CCCCC1)(c1ccccc1)C1CCCCC1` (stereo not drawn) [Trihexyphenidyl-D,L Hydrochloride], the “AK-based Prestwick Library Screening Results, P. aeruginosa (fold increase in extracellular AK activity)” value in assay [1] (setting [22]) was found to be 1.3. Moreover, the “AK-based Prestwick Library Screening Results, S. aureus (fold increase in extracellular AK activity)” value in assay [2] (setting [22]) was 1.4. In addition, in assay [3] (setting [22]), the “AK-based Prestwick Library Screening Results, E. coli (fold increase in extracellular AK activity)” value is reported as 1.2. Besides, the “AK-based Prestwick Library Screening Results, K. pneumoniae (fold increase in extracellular AK activity)” value in assay [4] (setting [22]) turned out to be 1.1. Besides, the “AK-based Prestwick Library Screening Results, E. faecium (fold increase in extracellular AK activity)” value in assay [5] (setting [22]) is given as 1.1. Further, the “AK-based Prestwick Library Screening Results, E. cloacae (fold increase in extracellular AK activity)” value in assay [6] (setting [22]) worked out at 1.5. Besides, in assay [7] (setting [22]), the “AK-based Prestwick Library Screening Results, A. baumannii (fold increase in extracellular AK activity)” value was 1.4.
